The text below walks through data of patent US20060194748A1, “Methods for treating disorders induced by H. pylori infections and pharmaceutical compositions for the same” (National University Corporation Nagoya University, priority 2005, published 2006).

≈ marks a conversion by molar mass, not a printed value. Read-outs that look alike come from different tables or passages of the source.

The test system of one assay is H. pylori strains. The experiment in a line: MIC of CLR for donor strains and CLR-resistant isogenic mutants (agar/disk dilution). The class given is cell-based, Helicobacter pylori. As to the method: The susceptibilities of the CLR-resistant strains were determined by the agar dilution method (27). […] The MIC of glycine was defined as the lowest concentration that inhibited the visible growth of isolates completely by the agar dilution method on Mueller-Hinton agar (Becton Dickinson and Company, Paramus, N.J.) plates supplemented with 5% aged sheep blood (Nippon Bio-Test Laboratories Inc., Tokyo, Japan) (M-H agar) (27).
(§1) Briefly, all isolates were incubated for 4 days on BB agar. After this incubation, inocula were prepared by suspending growth from the BB agar plates with antimicrobial agents in saline to achieve a suspension equivalent to a 2.0 McFarland standard. Final inocula of 10^6 CFU/spot were applied to M-H agar or BB. All plates were incubated for 3 days at 35° C. in a microaerophilic atmosphere, and the number of CFU was counted. In the liquid culture study, aliquots from each culture were applied to BB agar after 3 days of incubation of H. pylori at 37° C. under microaerophilic conditions. After 4 days of incubation, the number of CFU was counted. The mean value for the log number of CFU per milliliter was plotted.
CLR-resistant isogenic mutants with a single point mutation in domain V of the 23S rRNA gene were created from strain 26695 by natural transformation (3, 29). Transformants were isolated, and the MICs of CLR were determined by the disk dilution method.

For the next assay, the system named is H. pylori 26695. The experiment in a line: Time-kill curve test.
The subject of assay [1] is H. pylori strain 26695. The experiment in a line: MBC of AMX with glycine by liquid culture method.
Description: H. pylori was treated with the indicated concentrations of the test compounds for 3 days. AMX was used at concentrations of 0 to 75 ng/ml. […] The mean value for the log number of CFU per milliliter at each concentration was plotted.
By a second method, the minimal bactericidal concentrations (MBCs), defined as the lowest concentration of each antibiotic that completely killed the isolates, were determined by using liquid cultures with antimicrobial agents by a modification of the method of Sjöström et al. (31). […] After 3 days of incubation of H. pylori at 37° C. under microaerophilic conditions, aliquots from each culture were applied to BB agar for determination of the MBC. After 4 days of incubation, the number of CFU was counted.
The test system of assay [2] is 31 H. pylori strains, including CLR-resistant strains.
The subject of assay [3] is H. pylori strain 26695.
Description: The PAE on bacteria was measured by a modification of the method of Ibrahim et al. (19). After 4 days of growth of strain 26695 on BB agar, the bacteria were harvested, placed into PBS, and diluted with BB to ˜10^8 CFU/ml; and a final inoculum of 10^6 CFU/ml was applied to BB agar. […] After incubation for 8 h, the antibiotics were removed by dilution 1:10^3 into fresh BB and the cultures were incubated for 24 h. Samples were collected for viable counts (numbers of CFU per milliliter) every 4 h, plated onto BB agar plates, and incubated for 4 days. Viability curves were then determined. The control culture, which was not exposed to any antimicrobial agents, was treated similarly.
For quantification of the PAE, viable counts were determined before and after antibiotic exposure.
For assay [4], the system named is Lactococcus lactis subspecies. The settings on record: cited from earlier work.
Assay [5] has as its system 31 H. pylori strains, including CLR-resistant strains. The experiment in a line: microbe, parasite or virus in culture. To be noted: Helicobacter pylori.
Assay [6] has as its system CLR-susceptible and CLR-resistant H. pylori strains. As to the method:
H. pylori strains were treated with the indicated concentrations of test compound for 3 days. The mean value for the log number of CFU per milliliter of all CLR-susceptible and all CLR-resistant H. pylori strains at each concentration was plotted. Glycine was used at concentrations of 0, 0.5, 1, 1.5, 2.0, and 2.5 mg/ml. […] Symbols: ▪, CLR-susceptible strains; ▴, CLR-resistant strains.
as §1

Description for H. pylori 26695: Glycine in BB was added to the cultures at the start of incubation. The mean values for the log number of CFU per milliliter versus time for H. pylori were tested with different concentrations of glycine. At 12-h intervals after drug addition, aliquots of each culture were spread onto BB agar for determination of the number of CFU.
The time course of the antibacterial effects was determined with strain 26695 (18). Briefly, bacteria cultured for 4 days on BB agar were diluted with fresh BB to ˜10^8 CFU/ml. […] At 0, 12, 24, 36, and 48 h, samples were removed and 0.1 ml of 10-fold serial dilution was plated onto BB agar. […] At 0, 6, 12, 18, and 24 h, samples were removed and 0.1 ml of 10-fold serial dilutions was plated onto BB agar. The number of colonies growing on the plates after 4 days of incubation was counted in both studies.

For the molecule `CC[C@H]1OC(=O)[C@H](C)[C@@H](O[C@H]2C[C@@](C)(OC)[C@@H](O)[C@H](C)O2)[C@H](C)[C@@H](O[C@@H]2O[C@H](C)C[C@H](N(C)C)[C@H]2O)[C@](C)(OC)C[C@@H](C)C(=O)[C@H](C)[C@@H](O)[C@]1(C)O` [CLR, clarithromycin], the “MIC of CLR” value was found to be 4 µg/mL in the assay on H. pylori strains (isogenic mutant strain 26695:535); 32 µg/mL with H. pylori strains (isogenic mutant strain 26695:628); 4 µg/mL in the assay on H. pylori strains (strain 535 (donor, A-to-G at position 2144)); 32 µg/mL in the assay on H. pylori strains (strain 628 (donor, A-to-G at position 2143)).

For `CC1(C)S[C@@H]2[C@H](NC(=O)[C@H](N)c3ccc(O)cc3)C(=O)N2[C@H]1C(=O)O` [AMX, amoxicillin], in the assay with H. pylori 26695 (AMX alone at 75 ng/ml), the “viable cells at 24 h” value was “no viable cells”. Besides, the “MBC of AMX with glycine relative to that of AMX alone” value with H. pylori strain 26695 [1] is 1/10. In addition, the MBC in the assay with H. pylori strain 26695 [1] (Helicobacter pylori, 26695, read-out: MBC of AMX with glycine, with glycine at 0.5 mg/ml) is 0.025 µg/mL; in the assay on H. pylori strain 26695 [1] (Helicobacter pylori, 26695, read-out: MBC of AMX with glycine, with glycine at 1 mg/ml) it was 0.01 µg/mL; in the assay with H. pylori strain 26695 [1] (Helicobacter pylori, 26695, read-out: MBC of AMX, with glycine at 0 mg/ml (AMX alone)), 0.075 µg/mL.

As to `NCC(=O)O` [glycine, Glycine], the MIC of glycine entry in assay [2] is recorded as “the same as the MIC for strain 26695”. In addition, the “difference in glycine MIC for CLR-susceptible and -resistant strains” value in assay [2] is recorded as “no difference”. For the same molecule, the “glycine concentration above which no colonies were detected in M-H agar” value in assay [2] (all strains tested) is “more than 2.5 mg/ml”. Further, the “time of significant decrease in number of CFU (P<0.01)” value with H. pylori 26695 (glycine alone, all concentrations) is given as 48 h. Moreover, the “earliest time of significant decrease in number of CFU (P<0.01)” value in the assay with H. pylori 26695 (glycine at 5 mg/ml) is listed as 24 h; in the assay on H. pylori 26695 (glycine at 10 mg/ml) it was 12 h. Also, the “nature of the effect of glycine” value in the assay with H. pylori 26695 (time-kill, 0 to 10 mg/ml) is “bactericidal”. Also, the “PAE against H. pylori” value in the assay with H. pylori strain 26695 [3] is on record as “no PAE”. Besides, the “glycine content of medium above which growth failed” value in assay [4] is “more than 2%”. In assay [5], this molecule yielded an MIC50 of 1500 µg/mL (≈ 20 mM). In assay [5] (31 strains), this molecule came in with an MIC90 of 2500 µg/mL (≈ 33.3 mM). For the same molecule, the MIC in assay [5] (ATCC43504, read-out: MIC of glycine) was 2500 µg/mL; in assay [5] (read-out: MIC of glycine) it was 2500 µg/mL; in assay [5] (read-out: glycine MICs for the 31 strains) it was 1000 to 2500 µg/mL (≈ 13.3 to 33.3 mM). The “difference in suppression of growth between CLR-susceptible and -resistant strains” value in assay [6] (including isogenic mutant strains, FIG. 1) is “no difference”. Further, the “80% Inh. %” value in assay [6] (see FIG. 1) turned out to be 0.05 mg/mL.
